{"source": "patent US20240246946A1", "about": "“MODULATORS OF TREX1” (Constellation Pharmaceuticals, Inc., priority 2021, published 2024)", "key": {"full length human TREX1": {"biological_target": "T1, full length human TREX1 (Homo sapiens, UniProt Q9NSU2)", "T1 construct": "N-terminally His-Tev tagged full length human TREX1; made in house; host or cells: E. coli", "T1 sequence (Q9NSU2 1-314)": "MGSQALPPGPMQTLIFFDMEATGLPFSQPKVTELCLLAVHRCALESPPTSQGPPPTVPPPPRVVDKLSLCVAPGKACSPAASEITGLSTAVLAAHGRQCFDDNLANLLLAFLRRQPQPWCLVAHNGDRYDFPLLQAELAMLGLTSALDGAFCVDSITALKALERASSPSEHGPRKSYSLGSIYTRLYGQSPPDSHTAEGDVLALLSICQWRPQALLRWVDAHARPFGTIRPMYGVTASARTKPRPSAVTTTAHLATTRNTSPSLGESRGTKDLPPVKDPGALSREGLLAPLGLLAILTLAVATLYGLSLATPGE", "test": "hTREX1 Biochemical Assay (fluorescence, dsDNA substrate degradation)", "details": "biochemical, read-out: hTREX1 IC50", "summary_of_the_method": "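Fluorescence rises as enzyme degrades a quenched TEX615-labelled dsDNA substrate (60 nM) in 50 mM Tris, 150 mM NaCl, 5 mM MgCl2, pH 7.4. Full-length His-Tev-tagged human TREX1, 4 pM, sits with compound 4 hours at 25° C before substrate; reaction 18 hours, stopped with EDTA.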"}, "full length mouse TREX1": {"biological_target": "T2, full length mouse TREX1 (Mus musculus, UniProt Q91XB0)", "T2 construct": "N-terminally His-Tev tagged full length mouse TREX1; made in house; host or cells: E. coli", "T2 sequence (Q91XB0 1-314)": "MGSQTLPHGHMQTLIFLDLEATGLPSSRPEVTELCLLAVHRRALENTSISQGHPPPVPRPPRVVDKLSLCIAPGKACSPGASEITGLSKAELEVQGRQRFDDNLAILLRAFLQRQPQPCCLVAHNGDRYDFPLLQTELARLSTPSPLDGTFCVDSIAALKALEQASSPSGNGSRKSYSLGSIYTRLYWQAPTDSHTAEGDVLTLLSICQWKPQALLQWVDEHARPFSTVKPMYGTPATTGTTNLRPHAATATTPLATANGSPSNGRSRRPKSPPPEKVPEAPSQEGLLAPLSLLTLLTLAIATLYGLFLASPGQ", "test": "mTREX1 Biochemical Assay (fluorescence, dsDNA substrate degradation)", "details": "biochemical, read-out: mTREX1 IC50", "summary_of_the_method": "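Reaction run 18 h at 25° C. with 60 nM TEX615/quencher-labelled dsDNA and 6 pM mouse TREX1 in Tris buffer (pH 7.4, 5 mM MgCl2, 1.0% DMSO), enzyme having sat 4 h with compound across 10 concentrations. EDTA quench; substrate degradation measured as fluorescence increase.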"}, "[1]": {"biological_target": "T3, human TREX2 (residues M44-A279) (Homo sapiens, UniProt Q9BQ50)", "T3 construct": "human TREX2 (residues M44-A279, expressed in E. coli); made in house; host or cells: E. coli", "T3 sequence (Q9BQ50 44-279 isoform Q9BQ50-1)": "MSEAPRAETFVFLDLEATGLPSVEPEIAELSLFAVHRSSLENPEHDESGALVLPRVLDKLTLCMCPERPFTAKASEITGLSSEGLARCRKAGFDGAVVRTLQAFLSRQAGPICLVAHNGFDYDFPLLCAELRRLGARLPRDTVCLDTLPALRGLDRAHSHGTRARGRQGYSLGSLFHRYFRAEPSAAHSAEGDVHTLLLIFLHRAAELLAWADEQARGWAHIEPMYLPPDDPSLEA", "test": "hTREX2 Biochemical Assay (fluorescence, dsDNA substrate degradation)", "details": "biochemical selectivity for hTREX1 vs hTREX2", "summary_of_the_method": "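Fluorogenic dsDNA degradation read at 615 nm (570 nm excitation) after EDTA quench. Final 60 nM substrate, 50 pM His-Tev-tagged enzyme, 5 mM MgCl2, pH 7.4, 1.0% DMSO; 4 h compound–enzyme preincubation then 18 h reaction, both 25 °C; 10-point titration.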"}, "hTREX1": {"biological_target": "T4, hTREX1 (Homo sapiens, UniProt Q9NSU2)", "T4 construct": "host or cells: HCT116 dual cells", "T4 sequence (Q9NSU2 1-314)": "T1 sequence (Q9NSU2 1-314)", "test": "hTREX1 HCT116 Cell Assay (HCT116 dual cells, Lucia luciferase reporter of Type I interferon induction)", "format": "cell-based", "details": "TREX1i 4 h before pBR322/BstNI transfection, read after 48 h", "summary_of_the_method": "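Type I interferon induction read as secreted Lucia luciferase 48 h after transfecting pBR322/BstNI digest (1 ug/mL, 100 ng/well) into HCT116 dual reporter cells. Compound added 4 h before transfection at up to 0.1% DMSO; cells in DMEM/10% FBS/25 mM HEPES at 37 °C.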"}}, "data": [{"smiles": "COC(C)(C)Cn1cc(C(c2cc(F)ccc2Cl)C(C)c2nc(C(=O)Nc3cnoc3)c(O)c(=O)n2C)cn1", "note": "(single isomer, unassigned) [Example 93 D1E2]", "values": [{"measurement": "IC50", "setting": "full length human TREX1", "value": "1 to 10", "unit": "nM"}, {"measurement": "IC50", "setting": "full length mouse TREX1", "value": "> 10", "unit": "nM"}, {"measurement": "hTREX1 vs hTREX2 selectivity", "setting": "[1]", "value": "A (A = <25 fold selective for hTREX1)"}, {"measurement": "IC50", "setting": "hTREX1", "value": "> 100", "unit": "nM"}]}, {"smiles": "CC(c1nc(C(=O)Nc2cnoc2)c(O)c(=O)n1C)C(c1cnn(CC2COC2)c1)c1cc(F)ccc1Cl", "note": "(single isomer, unassigned) [Example 94 D1E1]", "values": [{"measurement": "IC50", "setting": "full length human TREX1", "value": "1 to 10", "unit": "nM"}, {"measurement": "IC50", "setting": "full length mouse TREX1", "value": "1 to 10", "unit": "nM"}, {"measurement": "hTREX1 vs hTREX2 selectivity", "setting": "[1]", "value": "B (B = 25 to 50-fold selective for hTREX1)"}, {"measurement": "IC50", "setting": "hTREX1", "value": "> 100", "unit": "nM"}]}, {"smiles": "Cc1n[nH]c(C)c1C(c1ccccc1C#N)C(C)c1nc(C(=O)Nc2cnoc2)c(O)c(=O)n1C", "note": "(single isomer, unassigned) [Example 95 D1E1]", "values": [{"measurement": "IC50", "setting": "full length human TREX1", "value": "< 1", "unit": "nM"}, {"measurement": "IC50", "setting": "full length mouse TREX1", "value": "1 to 10", "unit": "nM"}, {"measurement": "hTREX1 vs hTREX2 selectivity", "setting": "[1]", "value": "C (C = >50 fold selective for hTREX1)"}, {"measurement": "IC50", "setting": "hTREX1", "value": "< 10", "unit": "nM"}]}, {"smiles": "Cc1n[nH]c(C)c1C(c1ccccc1C#N)C(C)c1nc(C(=O)Nc2cnoc2)c(O)c(=O)n1C", "note": "(single isomer, unassigned) [Example 95 D1E2]", "values": [{"measurement": "IC50", "setting": "full length human TREX1", "value": "> 10", "unit": "nM"}, {"measurement": "IC50", "setting": "full length mouse TREX1", "value": "> 10", "unit": "nM"}, {"measurement": "hTREX1 vs hTREX2 selectivity", "setting": "[1]", "value": "A (A = <25 fold selective for hTREX1)"}, {"measurement": "IC50", "setting": "hTREX1", "value": "> 100", "unit": "nM"}]}, {"smiles": "CC(c1nc(C(=O)Nc2cnoc2)c(O)c(=O)n1C)C(c1ccccc1Cl)c1cnn(C)c1C#N", "note": "(single isomer, unassigned) [Example 96 D1E1]", "values": [{"measurement": "IC50", "setting": "full length human TREX1", "value": "< 1", "unit": "nM"}, {"measurement": "IC50", "setting": "full length mouse TREX1", "value": "1 to 10", "unit": "nM"}, {"measurement": "hTREX1 vs hTREX2 selectivity", "setting": "[1]", "value": "A (A = <25 fold selective for hTREX1)"}, {"measurement": "IC50", "setting": "hTREX1", "value": "> 100", "unit": "nM"}]}, {"smiles": "CC(c1nc(C(=O)Nc2cnoc2)c(O)c(=O)n1C)C(c1ccccc1Cl)c1cnn(C)c1C#N", "note": "(single isomer, unassigned) [Example 96 D2E2]", "values": [{"measurement": "IC50", "setting": "full length human TREX1", "value": "< 1", "unit": "nM"}, {"measurement": "IC50", "setting": "full length mouse TREX1", "value": "1 to 10", "unit": "nM"}, {"measurement": "hTREX1 vs hTREX2 selectivity", "setting": "[1]", "value": "C (C = >50 fold selective for hTREX1)"}, {"measurement": "IC50", "setting": "hTREX1", "value": "< 10", "unit": "nM"}]}, {"smiles": "COCCn1cc(C(c2cc(F)ccc2Cl)C(C)c2nc(C(=O)Nc3cnoc3)c(O)c(=O)n2C)cn1", "note": "(single isomer, unassigned) [Example 97 D1E1]", "values": [{"measurement": "IC50", "setting": "full length human TREX1", "value": "1 to 10", "unit": "nM"}, {"measurement": "IC50", "setting": "full length mouse TREX1", "value": "1 to 10", "unit": "nM"}, {"measurement": "hTREX1 vs hTREX2 selectivity", "setting": "[1]", "value": "C (C = >50 fold selective for hTREX1)"}, {"measurement": "IC50", "setting": "hTREX1", "value": "> 100", "unit": "nM"}]}, {"smiles": "CC(c1nc(C(=O)Nc2cnoc2)c(O)c(=O)n1C)C(c1cnn(CCOC(F)(F)F)c1)c1cc(F)ccc1Cl", "note": "(single isomer, unassigned) [Example 98 D1E1]", "values": [{"measurement": "IC50", "setting": "full length human TREX1", "value": "1 to 10", "unit": "nM"}, {"measurement": "IC50", "setting": "full length mouse TREX1", "value": "1 to 10", "unit": "nM"}, {"measurement": "hTREX1 vs hTREX2 selectivity", "setting": "[1]", "value": "B (B = 25 to 50-fold selective for hTREX1)"}, {"measurement": "IC50", "setting": "hTREX1", "value": "> 100", "unit": "nM"}]}, {"smiles": "CC(c1nc(C(=O)Nc2cnoc2)c(O)c(=O)n1C)C(c1cnn(CC(C)(C)C#N)c1)c1cc(F)ccc1Cl", "note": "(single isomer, unassigned) [Example 99 D1E1]", "values": [{"measurement": "IC50", "setting": "full length human TREX1", "value": "1 to 10", "unit": "nM"}, {"measurement": "IC50", "setting": "full length mouse TREX1", "value": "> 10", "unit": "nM"}, {"measurement": "hTREX1 vs hTREX2 selectivity", "setting": "[1]", "value": "A (A = <25 fold selective for hTREX1)"}, {"measurement": "IC50", "setting": "hTREX1", "value": "> 100", "unit": "nM"}]}, {"smiles": "CC(c1nc(C(=O)Nc2cnoc2)c(O)c(=O)n1C)C(c1cnn(C(C)(C)CC#N)c1)c1cc(F)ccc1Cl", "note": "(single isomer, unassigned) [Example 100 D1E1]", "values": [{"measurement": "IC50", "setting": "full length human TREX1", "value": "1 to 10", "unit": "nM"}, {"measurement": "IC50", "setting": "full length mouse TREX1", "value": "1 to 10", "unit": "nM"}, {"measurement": "hTREX1 vs hTREX2 selectivity", "setting": "[1]", "value": "A (A = <25 fold selective for hTREX1)"}, {"measurement": "IC50", "setting": "hTREX1", "value": "> 100", "unit": "nM"}]}, {"smiles": "CC(c1nc(C(=O)Nc2cnoc2)c(O)c(=O)n1C)C(c1cnn(CCOC(F)(F)F)c1)c1cc(F)ccc1C#N", "note": "(single isomer, unassigned) [Example 101 D1E2]", "values": [{"measurement": "IC50", "setting": "full length human TREX1", "value": "< 1", "unit": "nM"}, {"measurement": "IC50", "setting": "full length mouse TREX1", "value": "1 to 10", "unit": "nM"}, {"measurement": "hTREX1 vs hTREX2 selectivity", "setting": "[1]", "value": "C (C = >50 fold selective for hTREX1)"}, {"measurement": "IC50", "setting": "hTREX1", "value": "10 to 100", "unit": "nM"}]}, {"smiles": "CC(c1nc(C(=O)Nc2cnoc2)c(O)c(=O)n1C)C(c1cnn(CC(F)F)c1)c1cc(F)ccc1C#N", "note": "(single isomer, unassigned) [Example 102 D1E2]", "values": [{"measurement": "IC50", "setting": "full length human TREX1", "value": "< 1", "unit": "nM"}, {"measurement": "IC50", "setting": "full length mouse TREX1", "value": "1 to 10", "unit": "nM"}, {"measurement": "hTREX1 vs hTREX2 selectivity", "setting": "[1]", "value": "B (B = 25 to 50-fold selective for hTREX1)"}, {"measurement": "IC50", "setting": "hTREX1", "value": "10 to 100", "unit": "nM"}]}]}
